Consider 20 compounds from patent US12600696B2 (XENIOPRO GMBH, priority 2017, dated 2026).

For assay [1], the system named is Notch signaling (hNotch1ΔE, human Notch1 receptor) in HeLa cells. Briefly: Notch reporter assay (luciferase luminescence readout in transfected HeLa cells). The class given is cell-based. As to conditions: Homo sapiens, 20 hours, relative to DMSO baseline level of 1.0, read-out: AVEw, weighted arithmetic mean of double-normalized Notch-reporter luciferase luminescence values (Activity Range). As for the experimental part: An according Notch-reporter assay, i.e. a luciferase-based luminescence readout, was used here to quantify the ability of the claimed small molecules to augment Notch signaling in a cellular system. For this purpose, HeLa cells, obtainable from the American Type Culture Collection (ATCC) under the accession number ATCC-CCL-2, were transiently transfected for 24 hours using FuGENE® HD (Promega, #E2311) as transfection reagent with expression vectors of a membrane-tethered form of the constitutively active intracellular domain of the human Notch1 receptor (hNotch1ΔE) to activate the signaling cascade (BPS Bioscience, human analogue to Notch Pathway Reporter Kit #60509 component C), a Firefly luciferase being expressed under the control of a Notch-responsive promoter to monitor Notch signaling (BPS Bioscience, Notch Pathway Reporter Kit #60509, CSL luciferase reporter vector from component A not premixed with Renilla luciferase vector), and a Renilla luciferase being constitutively expressed in a Notch signaling independent manner to include a measure for the cell number per sample (Promega, pRL-SV40, #E2231). HeLa cells were cultivated according to the protocol of the provider in DMEM medium (Fisherscientific, #11584456) containing 10% fetal bovine serum (Fisherscientific, #15517589). The transfection was carried out in a 100 mm-culture dish (StarLab, #CC7682-3394) with cells being properly attached to the plate at a cell confluency of 80-90% in a total volume of 7 mL culture medium. Per dish to be transfected, a transfection mix was prepared by adding to 238 μL Opti-MEM (Fisherscientific, #10149832) 40 μL of the hNotch1ΔE expression vector (100 ng/μL), 80 μL of the CSL luciferase reporter vector (40 ng/μL), 4 μL of the pRL-SV40-Renilla luciferase vector (10 ng/μL), and in the last step 18.1 μL of FuGENE® HD. After addition of FuGENE® HD the transfection mix was let stand for 15 min at room temperature and hereafter equally distributed into the culture dish. Subsequently, i.e. after 24 hours of transfection, the transfected cells (10.000 cells per well) were incubated with the test-compounds at a final concentration of 10 μM (diluted from 10 mM stock-solutions in DMSO to a final DMSO concentration of 0.1% v/v) or with the empty carrier DMSO at 0.1% v/v as control for 20 hours in 96-well plates suitable for luminescence readouts (CORNING, #3610). Hereafter, the cells were lysed with 30 μL per well of Passive Lysis Buffer (Promega, #E194A, component of Dual-Luciferase® Reporter Assay System, #E1910) and the Firefly as well as Renilla luciferase values were measured with a luminescence reader with applying 15 μL per well each of the corresponding enzyme substrates needed to create the luminescence signals (Promega, Dual-Luciferase® Reporter Assay System, #E1910).
The suitability of the assays for monitoring Notch signaling was controlled by additionally including a generally accepted commercial Notch inhibitor, i.e. DAPT, as negative control, as well as the reported Notch enhancer resveratrol (RES) as positive control (Pinchot et al., Cancer 2011, 117, 1386-1398; Truong et al., Ann. Surg. Oncol. 2011, 18, 1506-1511; Yu et al., Mol. Cancer Ther. 2013, 12, 1276-1287). Both control compounds were likewise tested at 10 μM.
Per single experiment the measurement was performed in six replicates per compound. For every compound, this experiment was repeated in three or more independent replicates. The values of the Notch-reporter luciferase were normalized by division through the corresponding individual Notch-independent Renilla values in order to eliminate the impact of variation in the absolute cell-numbers in between the samples. For every individual plate, a second normalization was performed against the equally weighted arithmetic mean (here abbreviated as AVE) of the six associated Renilla-normalized DMSO-control values within a single experiment in order to obtain the relative values to a baseline level of 1.0. […]

The test system of assay [2] is HL-60 cells (human acute myeloid leukemia cells). Briefly: alamarBlue proliferation assay with HL-60 cells. The class given is cell-based. As to conditions: 120 h, 5 days, relative to DMSO baseline level of 1.0, read-out: AVEw, weighted arithmetic mean of normalized fluorescence intensity values (Activity Range), HL-60 proliferation. As for the experimental part:
The antiproliferative activities of compounds falling under formula I, formula II, formula III, formula IV and formula V were investigated on cells or cell lines originating from a disorder of the myeloid cell compartment, the neuroendocrine system, the cervix, and the mucosal epithelium, as well as from the skin epithelium. To this end, HL-60 cells, TT cells, HeLa cells, CAL-27 cells and human primary epidermal keratinocytes (HPEK) were seeded into 96-well plates suitable for fluorescence assays (CORNING #3598) at following initial cell numbers: 1000 cells per well for HL-60; 9000 cells per well for TT; 2000 cells per well for HeLa, 2000 cells per well for CAL-27, 2000 cells per well for HPEK. The cells were treated with compounds at indicated final concentrations (diluted from the 1000× stock-solutions in DMSO to a final DMSO concentration of 0.1% v/v) or with the empty carrier DMSO at 0.1% v/v as control for 5 days. At day 5 after starting the treatments the cells were subjected to the alamarBlue® Proliferation Assay (Bio-Rad Serotec GmbH, BUF012B) according to the protocol of the manufacturer. The readout was taken with a multi-well plate-reader in the fluorescence mode with applying a filter for excitation at 560 nm (band width 10 nm) and for emission at 590 nm (band width 10 nm). Resveratrol (RES) treatment was included as control for growth inhibition.
The assays were performed in duplicate or more replicates of independent single experiments each containing a six-fold replicate for every condition. For every individual plate, the measured fluorescence intensity values of the conditions with compound treatment were normalized against the corresponding equally weighted arithmetic mean of the fluorescence intensity values of the six DMSO treated control wells in order to obtain the relative values to a baseline level of 1.0. The statistical calculations were performed in analogy to the luciferase assay as described above. To this end, two independent outlier analyses were performed according to the methods by Peirce and Chauvenet (Ross, Journal of Engineering Technology 2003, 1-12). Outliers confirmed by at least one of the methods were excluded from the calculations but not more than one value out of six per compound within a single experiment. The weighted arithmetic mean AVEw for each compound was calculated from the normalized values over all independent replicates of the single experiments comprising the six replicates each. The corresponding standard deviation for the weighted arithmetic mean was calculated according to the method described by Bronstein et al. (Bronstein, Semendjajew, Musiol, Mühlig, Taschenbuch der Mathematik, 5th edition 2001 (German), publisher: Verlag Harri Deutsch, Frankfurt am Main and Thun) and was combined with the Gauß′ error propagation associated with the performed calculation for the normalization. The resulting standard deviation is herein referred to as “combined standard deviation”.
HL-60 cells were cultivated according to the protocol of the provider in RPMI 1640 medium (Fisherscientific, #11554526) containing 10% fetal bovine serum (Fisherscientific, #15517589).
A compound is considered as a growth inhibitor of HL-60 cells, if—at a reference concentration of 20 μM—the weighted arithmetic mean of the normalized fluorescence intensity values after addition of the corresponding combined standard deviation amounts to 0.9 or lower, in particular to 0.8 or lower, 0.7 or lower, 0.6 or lower, 0.4 or lower, and 0.2 or lower, relative to the overall basis level of 1.0. The overall basis level was calculated as the weighted arithmetic mean of all normalized values from the DMSO control measurements in analogy to the calculations performed for the test-compounds. The corresponding combined standard deviation for the DMSO values amounts to less than 1·10^−2.
In general terms: The colour change of resazurin is a common sign of viable cells or microbes.

For the compound `COC(=O)c1ccc(Oc2ccc(C3CC4CCC3CC4)cc2)cc1` (racemic) [Compound 044, (±)-Methyl 4-(4-(bicyclo[2.2.2]octan-2-yl)phenoxy)benzoate], the fold induction at 10 µM in assay [1] was 1.3 to 1.4. The activity at 20 µM in assay [2] lay in the range of 40 to 60%.
In the same order, the values of `CCOC(=O)c1ccc(Oc2ccc(C3CC4CCC3C4)cc2)cc1` (racemic) [Compound 066, ethyl 4-(4-((1S,4R)-bicyclo[2.2.1]heptan-2yl)phenoxy)benzoate] are 1.3 to 1.4 and 40 to 60%.
`CCOC(=O)c1ccc(Oc2ccc(C3CC4CCC3CC4)cc2)cc1` (racemic) [Compound 067, ethyl 4-(4-((1s,4s)-bicyclo[2.2.2]octan-2-yl)phenoxy)benzoate]: the fold induction at 10 µM in assay [1] lay within 1.4 to 1.7. The activity at 20 µM in assay [2] is 60 to 70%.
The like results for `CCOC(=O)c1ccc(Oc2ccc(C3CC4CCC3C4)cc2)nc1` (racemic) [Compound 133, ethyl 6-(4-((1S,4R)-bicyclo[2.2.1]heptan-2-yl)phenoxy)nicotinate] were, in that order, 1.2 to 1.3 and 40 to 60%.
In the case of `CCOC(=O)c1ccc(Oc2ccc(C3CC4CCC3CC4)cc2)nc1` (racemic) [Compound 134, ethyl 6-(4-((1s,4s)-bicyclo[2.2.2]octan-2-yl)phenoxy)nicotinate], the fold induction at 10 µM in assay [1] was in the range of 1.4 to 1.7. Besides, the activity at 20 µM in assay [2] fell in the range of 70 to 80%.
Consider `CCC(C)(C)c1ccc(Oc2ccc(C(=O)OC)cc2)cc1` [Compound 030, Methyl 4-(4-(tert-Pentyl)phenoxy)benzoate], for which the fold induction at 10 µM in assay [1] was at least 2. In assay [2], the activity at 20 µM was in the range of 80 to 90%.
`COC(=O)c1ccc(Oc2ccc(C3CCCCC3)cc2)cc1` [Compound 041, methyl 4-(4-(cyclohexyl)phenoxy)benzoate]: the fold induction at 10 µM in assay [1] is 1.4 to 1.7. The activity at 20 µM in assay [2] was in the range of 70 to 80%.
In the same order, the values of `COC(=O)c1ccc(Oc2ccc(C3C[C@@H]4CC[C@H]3C4)cc2)cc1` (stereo partly drawn) [Compound 043, methyl 4-(4-((1S,4R)-bicyclo[2.2.1]heptan-2-yl)phenoxy)benzoate] are 1.7 to 2 and 40 to 60%.
In the same order, the values of `COC(=O)c1ccc(Oc2ccc(C34CC5CC(CC(C5)C3)C4)cc2)cc1` [Compound 045, methyl 4-(4-((3r,5r,7r)-adamantan-1-yl)phenoxy)benzoate] are 1.7 to 2 and 40 to 60%.
With `CCCCc1ccc(Oc2ccc(C(=O)O)cn2)cc1` [Compound 072, 6-(4-butylphenoxy)nicotinic acid], the fold induction at 10 µM in assay [1] lay within 1.4 to 1.7. Moreover, the activity at 20 µM in assay [2] is 80 to 90%.
The like results for `CCCCCc1ccc(Oc2ccc(C(=O)O)cn2)cc1` [Compound 073, 6-(4-pentylphenoxy)nicotinic acid] were, in that order, 1.4 to 1.7 and 80 to 90%.
On to `CC(C)c1ccc(Oc2ccc(C(=O)O)cn2)cc1` [Compound 075, 6-(4-isopropylphenoxy)nicotinic acid], for which, in assay [1], the fold induction at 10 µM is 1.4 to 1.7. In addition, in assay [2], the activity at 20 µM fell in the range of 80 to 90%.
In the case of `CCc1ccc(Oc2ccc(C(=O)OC)cn2)cc1` [Compound 092, methyl 6-(4-ethylphenoxy)nicotinate], the fold induction at 10 µM in assay [1] fell in the range of 1.2 to 1.3. Moreover, in assay [2], the activity at 20 µM lay within 80 to 90%.
For `Cc1ccc(Oc2ccc(C(=O)N(C)C)cc2)cc1` [Compound 215, N,N-dimethyl-4-(p-tolyloxy)benzamide], in assay [1], the fold induction at 10 µM was 1.1 to 1.2. For the same compound, in assay [2], the activity at 20 µM lay in the range of 70 to 80%.
The like results for `CCc1ccc(Oc2ccc(C(=O)N(C)C)cc2)cc1` [Compound 216, 4-(4-ethylphenoxy)-N,N-dimethylbenzamide] were, in that order, 1.4 to 1.7 and 0 to 20%.
Regarding `CCCc1ccc(Oc2ccc(C(=O)N(C)C)cc2)cc1` [Compound 217, N,N-dimethyl-4-(4-propylphenoxy)benzamide], the fold induction at 10 µM in assay [1] lay in the range of 1.2 to 1.3. Also, in assay [2], the activity at 20 µM lay within 60 to 70%.
The like results for `CC(C)c1ccc(Oc2ccc(C(=O)N(C)C)cc2)cc1` [Compound 221, 4-(4-isopropylphenoxy)-N,N-dimethylbenzamide] were, in that order, 1.1 to 1.2 and 40 to 60%.
As to `CN(C)C(=O)c1ccc(Oc2ccc(C(C)(C)C)cc2)cc1` [Compound 222, 4-(4-(tert-Butyl)phenoxy)-N,N-dimethylbenzamide], the fold induction at 10 µM in assay [1] was 1.2 to 1.3. For the same compound, in assay [2], the activity at 20 µM lay within 60 to 70%.
With `Cc1ccc(Oc2ccc(C(=O)N(C)C)cn2)cc1` [Compound 316, N,N-dimethyl-6-(p-tolyloxy)nicotinamide], the fold induction at 10 µM in assay [1] fell in the range of 1.2 to 1.3. Moreover, the activity at 20 µM in assay [2] was in the range of 80 to 90%.
In the same order, the values of `CCc1ccc(Oc2ccc(C(=O)N(C)C)cn2)cc1` [Compound 317, 6-(4-ethylphenoxy)-N,N-dimethylnicotinamide] are 1.4 to 1.7 and 80 to 90%.
